Data taken from ChEMBL document CHEMBL1201862, “PubChem BioAssay data set” (2004).
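Test compounds were applied to cells in 96-well plates for 48 hours at 5 doses. GI50 = concentration required for 50% inhibition of growth.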 Calls of active or inactive are those of the source. No stated cut-off is given here; in the data, active = GI50 up to about 1.1 µM and inactive = higher.

Experiments:
Assay in all cases: inhibition of tumour cell growth, NCI panel, 48 h
M19-MEL = test system: M19-MEL
SR = test system: SR
SNB-75 = test system: SNB-75
KM12 = test system: KM12
NCI-H522 = test system: NCI-H522
TK-10 = test system: TK-10
UACC-257 = test system: UACC-257
KM-20L2 = test system: KM-20L2
UACC-62 = test system: UACC-62
CCRF-CEM = test system: CCRF-CEM
SF-268 = test system: SF-268
RPMI-8226 = test system: RPMI-8226
HCT-116 = test system: HCT-116
NCI-H226 = test system: NCI-H226
DLD-1 = test system: DLD-1
SK-MEL-5 = test system: SK-MEL-5
A549 = test system: A549
HL-60 = test system: HL-60
SF-539 = test system: SF-539
786-0 = test system: 786-0
HT-29 = test system: HT-29
SF-295 = test system: SF-295
DMS-273 = test system: DMS-273
SK-MEL-28 = test system: SK-MEL-28
SW-620 = test system: SW-620
SK-OV-3 = test system: SK-OV-3
IGROV-1 = test system: IGROV-1
K562 = test system: K562
ACHN = test system: ACHN
HOP-92 = test system: HOP-92
M14 = test system: M14
OVCAR-3 = test system: OVCAR-3
LXFL 529 = test system: LXFL 529
EKVX = test system: EKVX
MOLT-4 = test system: MOLT-4
CAKI-1 = test system: CAKI-1
LOX IMVI = test system: LOX IMVI
Malme-3M = test system: Malme-3M
SK-MEL-2 = test system: SK-MEL-2
U-251 = test system: U-251
SNB-19 = test system: SNB-19
SNB-78 = test system: SNB-78
HOP-62 = test system: HOP-62
A498 = test system: A498
HCC 2998 = test system: HCC 2998
DMS-114 = test system: DMS-114
OVCAR-8 = test system: OVCAR-8
UO-31 = test system: UO-31
NCI-H23 = test system: NCI-H23
HCT-15 = test system: HCT-15
SN12C = test system: SN12C
COLO 205 = test system: COLO 205
NCI-H460 = test system: NCI-H460
OVCAR-5 = test system: OVCAR-5
OVCAR-4 = test system: OVCAR-4

SMILES: N#CC(c1ccc(Cl)cc1)c1c(=O)[nH]c2ccc(N)cc2[n+]1[O-] (stereo unspecified)
- GI50 (M19-MEL): > 100 µM (inactive)
- GI50 (SR): > 100 µM (inactive)
- GI50 (SNB-75): > 100 µM (inactive)
- GI50 (KM12): > 100 µM (inactive)
- GI50 (NCI-H522): > 100 µM (inactive)
- GI50 (TK-10): > 100 µM (inactive)
- GI50 (UACC-257): > 100 µM (inactive)
- GI50 (KM-20L2): > 100 µM (inactive)
- GI50 (UACC-62): > 100 µM (inactive)
- GI50 (CCRF-CEM): > 100 µM (inactive)
- GI50 (SF-268): > 100 µM (inactive)
- GI50 (RPMI-8226): > 100 µM (inactive)
- GI50 (HCT-116): > 100 µM (inactive)
- GI50 (NCI-H226): > 100 µM (inactive)
- GI50 (DLD-1): > 100 µM (inactive)
- GI50 (SK-MEL-5): > 100 µM (inactive)
- GI50 (A549): > 100 µM (inactive)
- GI50 (HL-60): > 100 µM (inactive)
- GI50 (SF-539): > 100 µM (inactive)
- GI50 (786-0): > 100 µM (inactive)
- GI50 (HT-29): > 100 µM (inactive)
- GI50 (SF-295): > 100 µM (inactive)
- GI50 (DMS-273): > 100 µM (inactive)
- GI50 (SK-MEL-28): > 100 µM (inactive)
- GI50 (SW-620): > 100 µM (inactive)
- GI50 (SK-OV-3): > 100 µM (inactive)
- GI50 (IGROV-1): > 100 µM (inactive)
- GI50 (K562): > 100 µM (inactive)
- GI50 (ACHN): > 100 µM (inactive)
- GI50 (HOP-92): > 100 µM (inactive)
- GI50 (M14): > 100 µM (inactive)
- GI50 (OVCAR-3): > 100 µM (inactive)
- GI50 (LXFL 529): > 100 µM (inactive)
- GI50 (EKVX): > 100 µM (inactive)
- GI50 (MOLT-4): > 100 µM (inactive)
- GI50 (CAKI-1): > 100 µM (inactive)
- GI50 (LOX IMVI): > 100 µM (inactive)

SMILES: Nc1ccc(C(=O)NN2C(=O)C(Cl)C2c2ccc([N+](=O)[O-])cc2)cc1 (stereo unspecified)
- GI50 (M19-MEL): 14.6 µM (inactive)
- GI50 (SNB-75): 10.2 µM (inactive)
- GI50 (KM12): 10.5 µM (inactive)
- GI50 (NCI-H522): 1.73 µM (inactive)
- GI50 (Malme-3M): 12.1 µM (inactive)
- GI50 (TK-10): 19.2 µM (inactive)
- GI50 (UACC-257): 14.7 µM (inactive)
- GI50 (KM-20L2): 13.4 µM (inactive)
- GI50 (UACC-62): 8.59 µM (inactive)
- GI50 (CCRF-CEM): 3.54 µM (inactive)
- GI50 (SF-268): 1.99 µM (inactive)
- GI50 (RPMI-8226): 15.4 µM (inactive)
- GI50 (SK-MEL-2): 16.9 µM (inactive)
- GI50 (HCT-116): 1.63 µM (inactive)
- GI50 (U-251): 2.13 µM (inactive)
- GI50 (NCI-H226): 17.2 µM (inactive)
- GI50 (DLD-1): 9.79 µM (inactive)
- GI50 (SK-MEL-5): 15.5 µM (inactive)
- GI50 (A549): 11.9 µM (inactive)
- GI50 (HL-60): 1.92 µM (inactive)
- GI50 (SF-539): 11.6 µM (inactive)
- GI50 (SNB-19): 13.1 µM (inactive)
- GI50 (786-0): 3.87 µM (inactive)
- GI50 (HT-29): 8.87 µM (inactive)
- GI50 (SF-295): 13.8 µM (inactive)
- GI50 (SNB-78): 22.6 µM (inactive)
- GI50 (HOP-62): 11 µM (inactive)
- GI50 (DMS-273): 5.62 µM (inactive)
- GI50 (SK-MEL-28): 7.23 µM (inactive)
- GI50 (SW-620): 11.1 µM (inactive)
- GI50 (SK-OV-3): 14.1 µM (inactive)
- GI50 (A498): 20.8 µM (inactive)
- GI50 (IGROV-1): 5.31 µM (inactive)
- GI50 (HCC 2998): 9.08 µM (inactive)
- GI50 (DMS-114): 2.84 µM (inactive)
- GI50 (K562): 9.75 µM (inactive)
- GI50 (OVCAR-8): 14.6 µM (inactive)
- GI50 (ACHN): 12.3 µM (inactive)
- GI50 (HOP-92): 17.5 µM (inactive)
- GI50 (M14): 12.9 µM (inactive)
- GI50 (OVCAR-3): 3.71 µM (inactive)
- GI50 (LXFL 529): 4.86 µM (inactive)
- GI50 (UO-31): 15.6 µM (inactive)
- GI50 (NCI-H23): 7 µM (inactive)
- GI50 (EKVX): 7.59 µM (inactive)
- GI50 (MOLT-4): 3.2 µM (inactive)
- GI50 (HCT-15): 8.05 µM
- GI50 (CAKI-1): 20 µM (inactive)
- GI50 (SN12C): 14.8 µM (inactive)
- GI50 (COLO 205): 14.8 µM (inactive)
- GI50 (LOX IMVI): 1.74 µM (inactive)
- GI50 (NCI-H460): 6.21 µM (inactive)
- GI50 (OVCAR-5): 17.6 µM (inactive)
- GI50 (OVCAR-4): 12.7 µM (inactive)
